Measured values reported in PMC6271834, “Antiprotozoal Activity of (E)-Cinnamic N-Acylhydrazone Derivatives” (Molecules, 2014).
Read-outs that look alike come from different tables or passages of the source.

Experiments:
[1] = test system: Leishmania donovani (MHOM/ET/67/L82) axenic amastigotes; assay: Leishmanicidal activity, axenic amastigotes, Alamar Blue; assay type: cell-based; conditions: for IC50: Leishmania donovani, axenic amastigotes, strain MHOM/ET/67/L82, 72 h, means of two determinations, read-out: L. donovani IC50; for SI (Selectivity Index for leishmanicidal activity): L-6 cells versus L. donovani
Description: Amastigotes of Leishmania donovani strain MHOM/ET/67/L82 were grown in axenic culture at 37 °C in SM medium at pH 5.4 supplemented with 10% heat-inactivated fetal bovine serum under an atmosphere of 5% CO2 in air. One hundred microliters of culture medium with 10^5 amastigotes from axenic culture with or without the compound to test were seeded in 96-well microtiter plates. […] Each drug was tested in duplicate and each assay was repeated at least once. After 72 h of incubation the plates were inspected under an inverted microscope to assure growth of the controls and sterile conditions. Ten microliters of Alamar Blue (12.5 mg resazurin dissolved in 100 mL phosphate buffered saline) were then added to each well and the plates incubated for another 2 h. Then the plates were read in a Spectramax Gemini XS microplate fluorometer (Molecular Devices Cooperation, Sunnyvale, CA, USA) using an excitation wave length of 536 nm and an emission wave length of 588 nm. Data were analyzed using the software Softmax Pro (Molecular Devices Cooperation, Sunnyvale, CA, USA). Decrease of fluorescence (=inhibition) was expressed as percentage of the fluorescence of control cultures. For the serial drug dilution assay inhibition values were plotted against the drug concentrations and IC50 values were calculated from the sigmoidal inhibition curves.

[2] = test system: Trypanosoma brucei rhodesiense (STIB900); assay: Trypanocidal activity, bloodstream forms, Alamar Blue; assay type: cell-based; conditions: read-out: T.b. rhod. IC50
Description: Minimum essential medium (50 μL) supplemented according to a known procedure with 2-mercaptoethanol and 15% heat-inactivated horse serum was added to each well of a 96-well microtiter plate. Serial drug dilutions were prepared covering a range from 90 to 0.123 μg/mL. Then 10^4 bloodstream forms of T. b. rhodesiense STIB 900 in 50 μL were added to each well and the plate incubated at 37 °C under a 5% CO2 atmosphere for 72 h. Ten microliters of Alamar Blue (containing 12.5 mg resazurin dissolved in […] distilled water) were then added to each well and incubation continued for a further 2–4 h. The Alamar Blue dye is an indicator of cellular growth and/or viability. The blue, non-fluorescent, oxidized form becomes pink and fluorescent upon reduction by living cells. The plate was then read in a Spectramax Gemini XS microplate fluorometer (Molecular Devices Cooperation, Sunnyvale, CA, USA) using an excitation wavelength of 536 nm and emission wavelength of 588 nm. Fluorescence development was measured and expressed as percentage of the control. Data were transferred into the graphic programme Softmax Pro (Molecular Devices,) which calculated IC50 values. Melarsoprol was used as standard.

[3] = test system: L-6 rat myoblast cells; assay: Cytotoxicity to L-6 cells, Alamar Blue; assay type: cell-based; conditions: for IC50: read-out: Cytot. L-6 Cells IC50
Description: Exactly 100 μL RPMI 1640 medium supplemented with 1% L-glutamine (200 mM) and 10% fetal bovine serum containing 4 × 10^4 L-6 cells (rat skeletal myoblasts) were added to each well of a 96-well microtiter plate. After 24 h, the medium was removed from all wells and replaced by 100 μL of fresh medium containing a 3-fold serial drug dilution covering a range from 200 μg/mL to 0.274 μg/mL, except for the control wells. After 72 h of incubation 10 μL of Alamar Blue (12.5 mg resazurin dissolved in 100 mL phosphate buffered saline) were added to each well and the plates were incubated for another 2 h. Then the plates were read with a Spectramax Gemini XS microplate fluorometer as described for the leishmanicidal assay. Podophyllotoxin was used as standard drug.

[4] = test system: Trypanosoma brucei rhodesiense (STIB900); assay: Trypanocidal activity, bloodstream forms, Alamar Blue; assay type: cell-based; conditions: L-6 cells versus T. b. rhodesiense
[5] = test system: cruzipain; set-up: method as in doi:10.1590/S0103-50532010000100021; conditions: cited from earlier work
[6] = test system: L. major cathepsin L-like cysteine protease; set-up: method as in PMID 9371086; conditions: cited from earlier work
[7] = bloodstream forms, STIB900, 72 h, means of two determinations
[8] = L6, L-6 rat skeletal myoblasts, 72 h, means of two determinations
[9] = L-6 rat skeletal myoblasts, 72 h, means of two determinations

Compound	IC50 [1] [µM]	IC50 [2, 7] [µM]	SI (Selectivity Index for leishmanicidal activity) [1]	IC50 [3, 8] [µM]	SI (Selectivity Index for trypanocyde activity) [4]	IC50 ([2]; 72 h) [µM]	Cytot. L-6 Cells IC50 [3, 9]	IC50 ([3]; Rattus norvegicus, L6, 72 h) [µM]	IC50 [5] [µM]	IC50 [6] [µM]
CCCCCCCCCCCCCCCCOP(=O)([O-])OCC[N+](C)(C)C [MTS, Miltefosine, reference compound]	0.348	–	–	–	–	–	–	–	–	–
O=C(/C=C/c1ccccc1)N/N=C/c1ccc(F)cc1 [Compound 8]	24.3	284	>13.8	> 335	>1.2	–	–	–	–	–
Nc1nc(N)nc(Nc2ccc([As]3SCC(CO)S3)cc2)n1 (centres unmarked) [MLSP, Melarsoprol, reference compound]	–	–	–	–	–	0.003	–	–	–	–
O=C(/C=C/c1ccccc1)N/N=C/c1ccc2c(c1)OCO2 [Compound 6]	12.5	89.5	0.3	4.3	0.05	–	–	–	–	–
O=C(/C=C/c1ccccc1)N/N=C/c1ccc(O)cc1 [Compound 13]	36.7	82.5	1.1	40.4	0.5	–	–	–	–	–
O=C(/C=C/c1ccccc1)NN=Cc1ccc(O)c(O)c1 [Compound 5, (E)-N'-(3,4-dihydroxybenzylidene)cinnamohydrazide]	11.7	1.93	1.2	14	7.3	–	cytotoxic	–	–	–
O=C(/C=C/c1ccccc1)N/N=C/c1ccccc1 [Compound 12, (2E)-N'-[(E)-Benzylidene]-3-phenylprop-2-enohydrazide]	43.1	> 300	3.6	157	–	–	–	–	–	–
COc1cc(/C=N/NC(=O)/C=C/c2ccccc2)cc(OC)c1OC [Compound 7]	3.5	49.3	34.3	120	2.4	–	–	–	–	–
COc1ccc(/C=N/NC(=O)/C=C/c2ccccc2)cc1O [Compound 16]	33.3	80.1	1.4	48.1	0.6	–	–	–	–	–
O=C(/C=C/c1ccccc1)N/N=C/c1ccccc1O [Compound 15, (2E)-N'-[(E)-2-Hydroxybenzylidene]-3-phenylprop-2-enohydrazide]	3.61	6.72	4.1	14.9	2.2	–	cytotoxic	–	–	–
O=C(/C=C/c1ccccc1)N/N=C/c1ccc([N+](=O)[O-])cc1 [Compound 9]	10.6	> 300	24.1	255	–	–	–	–	–	–
COc1cc([C@@H]2c3cc4c(cc3[C@H](O)[C@H]3COC(=O)[C@H]23)OCO4)cc(OC)c1OC [PPT, Podophyllotoxin, reference compound]	–	–	–	–	–	–	–	0.006	–	–
(E)-1-(benzo[d][1,3]dioxol-5-yl)-3-(4-bromophenyl)prop-2-en-1-one [Compound 1]	–	–	–	–	–	–	–	–	20	–
(E)-3-hydroxy-N'-((2-hydroxynaphthalen-1-yl)methylene)-7-methoxy-2-naphthohydrazide [Compound 2]	–	–	–	–	–	–	–	–	–	0.5
COc1ccc(/C=N/NC(=O)/C=C/c2ccccc2)cc1 [Compound 10]	13.8	111	–	> 321	–	–	–	–	–	–
COc1cc(/C=N/NC(=O)/C=C/c2ccccc2)ccc1O [Compound 4]	21.7	40.8	4.4	95.4	2.3	–	–	–	–	–
COc1ccc(/C=N/NC(=O)/C=C/c2ccccc2)cc1OC [Compound 14]	31.2	67.6	>9.3	> 290	>4.3	–	–	–	–	–
O=C(/C=C/c1ccccc1)N/N=C/c1ccc(Cl)cc1 [Compound 11, (2E)-N'-[(E)-4-Chlorobenzylidene]-3-phenylprop-2-enohydrazide]	10.8	121	6.0	65.5	0.5	–	–	–	–	–
